The term EC50 denotes the concentration that produces a half-maximal response. A lower EC50 goes with a more potent agent.

In the test the test system is SARS-CoV-2. In words: microbe, parasite or virus in culture. The settings on record: Severe acute respiratory syndrome coronavirus 2, Munich 929, Huh-7.

On to `CCCC[C@H](NC(=O)OCc1ccccc1)C(=O)N[C@H](/C=C/C(C)=O)C[C@@H]1CCNC1=O`, for which it took 18500 nM to reach a half-maximal effect (EC50). The figure for `CC(=O)/C=C/[C@H](C[C@@H]1CCNC1=O)NC(=O)[C@H](CC1CCCCC1)NC(=O)OCc1ccccc1` is 1800 nM. The figure for `CC(=O)/C=C/[C@H](C[C@@H]1CCNC1=O)NC(=O)[C@H](CC1CC1)NC(=O)OCc1ccccc1` is 1500 nM.

The values above are taken from ChEMBL document CHEMBL5331084, “Structure-based lead optimization of peptide-based vinyl methyl ketones as SARS-CoV-2 main protease inhibitors” (Eur J Med Chem, 2023).
